Measurements taken from patent EP0204215B1, “2-[(1H-benzimidazol-2-ylsulfinyl)methyl]-benzenamines” (G.D. Searle & Co., priority 1985, dated 1986).

Tests used:
[1] = target: T1, (H⁺+K⁺)-ATPase (Canis lupus familiaris, UniProt P50996); experiment: Inhibition of (H⁺+K⁺)-ATPase from canine gastric mucosa (release of inorganic phosphate); type: biochemical; conditions: microsomes from canine gastric mucosa, pH 6.0, preincubated 30 min at 37°; read-out: (H⁺+K⁺)-ATPase IC₅₀
T1 construct: The microsomes retained at the 15%-30% sucrose interface, after centrifugation at 250,000xg for sixty minutes, were used as the source of (H⁺+K⁺)-ATPase; from tissue; host or cells: gastric glandular mucosa of mongrel dogs (microsomal fraction, sucrose step gradient, lyophilized)
T1 sequence (P50996 whole entry): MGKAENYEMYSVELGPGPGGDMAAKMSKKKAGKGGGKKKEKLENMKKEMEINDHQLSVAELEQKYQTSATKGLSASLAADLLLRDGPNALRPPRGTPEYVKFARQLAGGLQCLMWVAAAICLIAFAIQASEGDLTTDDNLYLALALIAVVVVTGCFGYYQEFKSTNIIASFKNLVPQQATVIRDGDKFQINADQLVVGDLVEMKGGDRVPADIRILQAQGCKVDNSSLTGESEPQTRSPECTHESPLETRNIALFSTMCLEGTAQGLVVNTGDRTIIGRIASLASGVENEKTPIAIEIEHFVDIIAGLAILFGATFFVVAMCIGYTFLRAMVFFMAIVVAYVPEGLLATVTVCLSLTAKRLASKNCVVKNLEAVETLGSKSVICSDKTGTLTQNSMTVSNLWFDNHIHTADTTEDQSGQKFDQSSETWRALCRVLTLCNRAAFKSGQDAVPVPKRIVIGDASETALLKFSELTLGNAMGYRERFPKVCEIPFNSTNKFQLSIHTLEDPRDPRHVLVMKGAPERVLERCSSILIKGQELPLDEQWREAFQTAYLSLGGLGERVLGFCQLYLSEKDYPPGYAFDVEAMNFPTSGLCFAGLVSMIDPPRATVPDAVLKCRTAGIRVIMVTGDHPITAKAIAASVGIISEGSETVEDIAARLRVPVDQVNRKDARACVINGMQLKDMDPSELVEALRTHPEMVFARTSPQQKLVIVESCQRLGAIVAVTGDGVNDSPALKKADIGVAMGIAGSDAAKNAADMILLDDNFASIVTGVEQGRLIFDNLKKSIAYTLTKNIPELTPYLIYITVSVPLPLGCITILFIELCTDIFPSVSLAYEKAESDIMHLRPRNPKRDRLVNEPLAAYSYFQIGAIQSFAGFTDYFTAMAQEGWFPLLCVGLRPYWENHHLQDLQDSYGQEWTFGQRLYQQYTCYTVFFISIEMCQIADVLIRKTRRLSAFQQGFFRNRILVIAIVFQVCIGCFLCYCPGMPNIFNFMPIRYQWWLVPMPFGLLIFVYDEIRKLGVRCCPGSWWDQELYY
T1 sequence (P33704 whole entry partner): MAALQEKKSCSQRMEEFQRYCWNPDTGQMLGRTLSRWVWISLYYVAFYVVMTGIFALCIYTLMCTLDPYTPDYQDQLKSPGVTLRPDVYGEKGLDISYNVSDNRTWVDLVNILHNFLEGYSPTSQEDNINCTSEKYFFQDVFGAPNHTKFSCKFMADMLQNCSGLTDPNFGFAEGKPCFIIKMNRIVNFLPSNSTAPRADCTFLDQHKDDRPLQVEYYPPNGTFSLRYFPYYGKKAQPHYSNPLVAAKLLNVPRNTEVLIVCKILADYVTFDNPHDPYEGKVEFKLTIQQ
Method: Mongrel dogs weighing 15 to 25 kilograms were fasted for twenty-four hours, with water provided ad libitum. The animals were anesthetized with pentobarbital and the stomachs were removed. Subsequent tissue manipulations and subcellular fractionations were performed at 0 to 4°C. After the stomachs were cut open and rinsed with tap water, the antral and cardiac regions were removed and the remaining tissue was rinsed three times in saline. The glandular mucosa was removed mechanically, chopped finely in a medium containing 10 mM Tris hydrochloride (pH 7.4) and 250 mM sucrose, and homogenized. The homogenate was centrifuged at 20,000xg for twenty minutes and the pellet discarded. The supernatant was then centrifuged at 150,000xg for ninety minutes and the supernatant discarded. The pellet was resuspended in the Tris-HCl/sucrose medium by homogenization. Part (2 ml) of the resultant microsomal suspension was layered onto a step gradient consisting of 9 ml of 15% sucrose above 12 ml of 30% sucrose, each sucrose solution being buffered with 10 mM Tris hydrochloride (pH 7.4) containing 0.01% sodium aside. The microsomes retained at the 15%-30% sucrose interface, after centrifugation at 250,000xg for sixty minutes, were used as the source of (H⁺+K⁺)-ATPase. Microsomal preparations were lyophilized, a process that assured potassium ion permiability, and stored at -10° until used.
(H⁺+K⁺)-ATPase activity for each test compound was determined, in duplicate, by measuring the release of inorganic phosphate, which was assayed according to the method of J. ChandraRajan and L. Klein. Anal. Biochem., 72, 407-412 (1976). The (H⁺+K⁺)-ATPase assay medium consisted of 20 mM Mes-Tris (pH 6.0), 5 mM magnesium chloride, 25 mM sucrose, and 4mM Tris-ATP with or without 20 mM potassium chloride in a total volume of 2 ml. Microsomal suspensions (20 to 60 mcl, containing about 25 mcg protein) were added to the assay medium, without Tris-ATP, and then preincubated with a test compound for thirty minutes at 37°. The assay was initiated by adding Tris-ATP and the mixture was incubated another thirty minutes at 37°. A 200-mcl aliquot of the assay mixture was then added to 1.4 ml of a solution consisting of 0.1 M sodium acetate (pH 4.0) and 10% sodium dodecylsulfate, followed by the addition of 200 mcl each of 1% ammonium molybdate and 1% ascorbic acid. At least fifteen minutes later, the optical absorbance at 870 nm (which was proportional to inorganic phosphate concentration up to 100 nmoles per tube, as determined by a standard curve) was obtained. Enzyme activity was linear with incubation time.
(H⁺+K⁺)-ATPase activity is represented by the difference between the measured activities in the presence of potassium ion (K⁺-stimulated) and in the absence of potassium ion (basal). The concentration of a test compound required to inhibit 50% of the (H⁺+K⁺)-ATPase activity (i.e., the IC₅₀) was determined at least in duplicate using linear regression analysis of results obtained for three different compound concentrations ranging from 0.1 mcM to 0.2 mM.

[2] = test system: Gastric Acid Secretion; experiment: Inhibition of gastric acid secretion in gastric fistula beagle dogs (histamine-stimulated); type: in vivo; conditions: four-hour histamine stimulation; for Gastric-Fistula Beagle % Inhibition: 3 mg/kg dose; for inhibition in vivo at 3 mg/kg: Canis lupus familiaris, 4 h
Text: Adult female beagle dogs weighing 6 to 11 kilograms obtained from Laboratory Research Enterprises (Kalamazoo, Mich.) or from Hazelton Research Animals (Cumberland, Va.) were surgically implanted with a simple Thomas-type gastric cannula. After recovery from surgery, the dogs were trained to stand quietly, fully conscious, in Pavlov-type dog restraining slings and were acclimated to intravenous infusion of histamine dihydrochloride. During the course of these studies, no dog was used more than once a week. All dogs were deprived of food, but not water, for 18 hours prior to each assay. Each dog was initially infused with 0.15 M sodium chloride solution at a constant rate of […]. The volume of gastric secretions, collected in plastic bottles affixed to the cannula, were measured to the nearest 0.1 ml at 30 minute intervals. One of the following protocols was followed, depending on the route chosen for administration of test compound.
Intravenous dosing: Following a 30-minute basal secretion period, test compounds were administered intravenously (i.v.). At the end of an additional 30 minute period, the saline infusion was replaced with histamine dihydrochloride in saline administered at a rate 15 mcg per kilogram of body weight per hour. Histamine stimulation was maintained for a maximum of four hours during which time gastric secretions were collected every 30 minutes. The pH and titratable acidity were determined for samples from each collection period.
Intragastric dosing: Following a 30-minute basal secretion period, the collection bottles were removed, dosing plugs were inserted, and test compounds were administered intragastrically (i.g.). At the end of a 30-minute drug absorption period, the stomachs were emptied, the collection bottles were reattached, and collections were resumed at 30-minute intervals. Simultaneously, the saline infusion was replaced with a continuous intravenous infusion of histamine dihydrochloride in saline administered for four hours at a rate 15 mcg per kilogram of body weight per hour.
Intraduodenal dosing: Dogs were also equipped with duodenal cannulas for intraduodenal (i.d.) administration of test compounds. Dosing was otherwise performed as described for intragastric dosing.
Data from each protocol were analyzed for three gastric sample variables: volume of gastric juice, acid concentration, and total acid output. Percent inhibition for each four-hour experimental period was determined for each parameter by comparison with 3 to 4 controls in which only food was given. Estimates of ED₅₀'s were determined from dose response curves.

[3] = test system: Gastric Acid Secretion; experiment: Inhibition of gastric acid secretion in meal-stimulated Pavlov pouch dog; type: in vivo, beagle dogs; conditions: four-hour period
Method: Adult female beagle dogs weighing 6 to 10 kilograms were obtained from Laboratory Research Enterprises (Kalamazoo, Mich.) or from Hazelton Research Animals (Cumberland, Va.). Surgical implantation of a Thomas-type gastric cannula into an innervated Pavlov pouch of each dog was performed by the method reported by L. Burrows et al., J. Surgical Res., 4, 147-150 (1964). After recovery from surgery, the dogs were trained to stand quietly, fully conscious, in Pavlov-type dog restraining slings. All dogs were deprived of food, but not water, for 24 hours prior to each assay. Basal acid secretion was measured by collecting from the cannulas for 30 minutes before dosing with a test compound. Solutions of the test compounds in iso-osmotic phosphate buffer (pH 7.4) were given either intravenously or directly into the Pavlov pouch. After 30 minutes the pouch was drained. The dogs were then fed 320 grams of dog food and gastric acid secretions were collected each half hour for four hours. Controls were determined in the same way except that only food (i.e., no test compound) was administered.
Data were analyzed for three different variables: volume of gastric juice, acid concentration, and total acid output. Percent inhibition for the four-hour experimental period was determined for each parameter by comparison with 3 to 4 controls. Estimates of ED₅₀ were determined from dose response curves.

| Compound | IC50 [1] [µM] | Gastric-Fistula Beagle % Inhibition ([2]; i.d.) [i.d. %] | also measured |
| --- | --- | --- | --- |
| 2-[[[(5-(trifluoromethy)1-1H-benzimidazol-2-yl]thio]methyl]-3,6-dimethylbenzenamine [Example 28] | 5.3 |  |  |
| 2-[[[(5-(trifluoromethyl)-1H-benzimidazol-2-yl]thio]methyl]benzenamine [Example 20] | 5.4 | 72 | Gastric-Fistula Beagle % Inhibition ([2]; i.v.): 96 i.v. % |
| Nc1ccccc1C[S+]([O-])c1nc2ccccc2[nH]1 (stereo not drawn) [Example 3, 2-[(1H-benzimidazol-2-ylsulfinyl)methyl] benzenamine hemihydrate] |  | 53 | Pavlov-Pouch Dog % Inhibition ([3]; 1 mg/kg): 20 (1 mg/kg) %; Pavlov-Pouch Dog % Inhibition ([3]; 10 mg/kg): 87 (10 mg/kg) % |
| COc1ccc2[nH]c([S+]([O-])Cc3ccccc3N)nc2c1 (stereo not drawn) [Example 5, 2-[[(5-methoxy-1H-benzimidazol-2-yl)sulfinyl]methyl]benzenamine] |  |  | Pavlov-Pouch Dog % Inhibition ([3]; 3 mg/kg): 19 (3 mg/kg) %; Pavlov-Pouch Dog % Inhibition ([3]; 10 mg/kg): 54 (10 mg/kg) % |
| Cc1ccc(N)c(C[S+]([O-])c2nc3ccccc3[nH]2)c1 (stereo not drawn) [Example 11, 2-[(1H-benzimidazol-2-ylsulfinyl)methyl]-4-methylbenzenamine] |  |  | Gastric-Fistula Beagle % Inhibition ([2]; i.v.): 67 i.v. % |
| Cc1cccc(C[S+]([O-])c2nc3ccccc3[nH]2)c1N (stereo not drawn) [Example 13, 2-[(1H-benzimidazol-2-ylsulfinyl)methyl]-6-methylbenzenamine] |  | 44 | Pavlov-Pouch Dog % Inhibition ([3]; 3 mg/kg): 43 (3 mg/kg) % |
| COc1ccc2[nH]c(SCc3cc(C)ccc3N)nc2c1 [Example 16, 2-[[(5-methoxy-1H-benzimidazol-2-yl)thio]methyl]-4-methylbenzenamine] | 0.85 |  |  |
| COc1ccc2[nH]c(SCc3cccc(C)c3N)nc2c1 [Example 18, 2-[[(5-methoxy-1H-benzimidazol-2-yl)thio]methyl]-6-methylbenzenamine] | 4.2 |  | inhibition in vivo at 3 mg/kg ([2]; intraduodenal, i.d.): 66%; inhibition in vivo at 3 mg/kg ([2]; iv): 91%; inhibition in vivo at 3 mg/kg ([2]; po, i.g.): 43%; Pavlov-Pouch Dog % Inhibition ([3]; 3 mg/kg): 79 (3mg/kg) % |
| Cc1ccc(CSc2nc3ccccc3[nH]2)c(N)c1C [Example 22, 2-[(1H-benzimidazol-2-ylthio)methyl]-5,6-dimethylbenzenamine] | 4.4 |  | inhibition in vivo at 3 mg/kg ([2]; intraduodenal, i.d.): 37% |
| CCOc1ccc2[nH]c(SCc3cc(C)ccc3N)nc2c1 [Example 26, 2-[[(5-ethoxy-1H-benzimidazol-2-yl)thio]-methyl]-4-methylbenzenamine] | 0.82 |  |  |
| Cc1cc(N)c(C[S+]([O-])c2nc3ccccc3[nH]2)c(C)c1C (stereo not drawn) [Example 30, 2-[(1H-benzimidazol-2-ylsulfinyl)methyl]-3,4,5-trimethylbenzenamine hemihydrate] | 1.5 |  |  |
| COc1ccc2[nH]c([S+]([O-])Cc3c(N)cc(C)c(OC)c3C)nc2c1 (stereo not drawn) [Example 31, 2-[[(5-methoxy-1H-benzimidazol-2-yl)sulfinyl]methyl]-4-methoxy-3,5-dimethylbenzenamine] | 16 | 31 |  |
